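Briefly, cells in 96-well plates were exposed to five compound concentrations for 48 h, and endpoints were estimated by linear interpolation. Abbreviation: GI50, concentration required for 50% inhibition of growth. TGI: total growth inhibition.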

These results are taken from PubChem BioAssay (NCI).

Holding throughout (assay): inhibition of tumour cell growth, NCI panel, 48 h
The test system of assay [1] is NCI-H226 lung.
The test system of assay [2] is SF-539 CNS.
For assay [3], the system named is UACC-257 melanoma.
Assay [4] deals with HOP-92 NSCLC.
Assay [5] concerns SF-295 CNS.
Assay [6] deals with A549 NSCLC.
The subject of assay [7] is OVCAR-3 ovarian.
Assay [8] concerns OVCAR-5 ovarian.
In assay [9] the test system is MDA-MB-231 breast.
In assay [10] the test system is EKVX NSCLC.

For the molecule `Cc1cc2c3ccc(C)[n+](C)c3ccc2n1C`, the GI50 in [1] is 12.9 µM; in assay [2] it was 3.89 µM; in assay [3] it was 3.45 µM; in assay [4], 1.97 µM; in [5], 2.34 µM; in assay [6], 0.46 µM. Also, the GI50 in assay [7] is 3.45 µM; in assay [8], 5.42 µM; in assay [9] it was 5.14 µM; in assay [10], 0.456 µM. For the same molecule, the TGI in [1] is 49.8 µM; in assay [2], 21.3 µM; in assay [3] it was 16.1 µM; in assay [4], 19.6 µM; in [5], 15.6 µM; in [6], 9.3 µM. Also, the TGI in assay [7] is 23.2 µM; in assay [8], 44 µM; in assay [9], 55.3 µM; in [10] it was 13.6 µM.
Regarding `N#Cc1c(N/N=C/c2c(Cl)cccc2Cl)nc(N)nc1N1CCOCC1`, the GI50 in [1] was 24.5 µM; in assay [2], 7.24 µM; in assay [3] it was 6.77 µM; in assay [4] it was 12.4 µM; in [5] it was 4.69 µM; in assay [6], 19.1 µM. In addition, the GI50 is 3.6 µM in assay [7], 43.4 µM in assay [8], 11.7 µM in assay [9] and 54.1 µM in assay [10]. Further, the TGI in assay [1] is above 100 µM; in assay [2], 30.4 µM; in assay [3], above 100 µM; in assay [4], above 100 µM; in [5], above 100 µM; in assay [6], above 100 µM. Besides, the TGI in assay [7] is above 100 µM; in [8] it was above 100 µM; in assay [9] it was 56.1 µM; in [10], above 100 µM.
Turning to `COc1cccc(C=Nc2cc(C)ccn2)c1O.COc1cccc(C=Nc2cc(C)ccn2)c1O.[Cu]`, the GI50 in assay [1] is 9.25 µM; in assay [2], 17 µM; in assay [3], 19.1 µM; in [4], 30.3 µM; in assay [5] it was 18 µM; in [6], 27.8 µM. In addition, the GI50 is 14 µM in assay [7], 20.2 µM in assay [8], 23.2 µM in assay [9] and 25.4 µM in [10]. For the same molecule, the TGI in assay [1] was found to be 27.2 µM; in assay [2], 42.9 µM; in assay [3], 43.1 µM; in [4] it was 50.6 µM; in [5], 46.1 µM; in assay [6], 90.1 µM. Besides, the TGI in assay [7] turned out to be 40.9 µM; in assay [8], 44.7 µM; in [9] it was 50.4 µM; in assay [10], 71.5 µM.
Consider `CN(C)CCCN1c2ccccc2CCc2ccc(Cl)cc21`, for which the GI50 is 7.22 µM in assay [1]; 5.59 µM in assay [2]; 1.84 µM in assay [3]; 1.44 µM in assay [4]; 3.51 µM in assay [5]; 9.27 µM in assay [6]. In addition, the GI50 in [7] is 9.17 µM; in [8] it was 4.07 µM; in assay [9], 3.06 µM; in assay [10], 10.9 µM. In addition, the TGI is 22.5 µM in assay [1]; 17.7 µM in assay [2]; 3.41 µM in [3]; 6.8 µM in assay [4]; 14.8 µM in assay [5]; 23.2 µM in [6]. The TGI in assay [7] was determined as 23.1 µM; in [8] it was 16.2 µM; in [9] it was 12 µM; in assay [10], 26.4 µM.
As for `COc1cc2nc(N3CCCC3)nc(NCC3CCCCC3)c2cc1OC`, the GI50 is 1.94 µM in assay [1]; 0.817 µM in assay [2]; 0.364 µM in assay [3]; 1.11 µM in assay [4]; 1.38 µM in assay [5]; 1.52 µM in assay [6]. Besides, the GI50 in assay [7] is 1.55 µM; in assay [8], 1.59 µM; in assay [9], 1.53 µM; in [10] it was 1.45 µM. The TGI was determined as 4.05 µM in assay [1]; 2.15 µM in assay [2]; 1.36 µM in [3]; 2.46 µM in assay [4]; 2.71 µM in assay [5]; 3.25 µM in assay [6]. Also, the TGI in assay [7] came out at 2.99 µM; in [8] it was 2.96 µM; in [9] it was 3.04 µM; in assay [10], 2.91 µM.
For the molecule `CC(C)CC(CC1=CCC2CC1C2(C)C)C1=C(O)C(C)(C)C(=O)C(C)(C)C1=O` (stereo not given), the GI50 in assay [1] is 0.42 µM; in assay [2], 0.357 µM; in assay [3] it was 0.256 µM; in assay [4], 0.191 µM; in assay [5] it was 0.285 µM; in assay [6], 0.359 µM. Besides, the GI50 in assay [7] is 0.359 µM; in assay [8], 0.386 µM; in assay [9] it was 0.247 µM; in assay [10], 0.33 µM. Also, the TGI in assay [1] was 9.46 µM; in assay [2], above 100 µM; in assay [3] it was 0.792 µM; in assay [4], 0.499 µM; in assay [5], 0.942 µM; in [6], above 100 µM. Moreover, the TGI in assay [7] was above 100 µM; in assay [8] it was above 100 µM; in assay [9], 0.717 µM; in assay [10], above 100 µM.
With `Cc1ccc(NC(=O)/C=C/c2ccccc2)c(C(N)=O)c1`, the GI50 is 6.46 µM in [1]; 2.07 µM in [2]; 22.5 µM in [3]; 15.5 µM in assay [4]; 2.79 µM in [5]; 5.28 µM in assay [6]. Further, the GI50 was 2.28 µM in assay [7], 9.68 µM in assay [8], 5.37 µM in assay [9] and 4.78 µM in [10]. Moreover, the TGI in assay [1] was above 100 µM; in assay [2], 6.75 µM; in assay [3], above 95.3 µM; in assay [4], above 100 µM; in [5] it was above 56.7 µM; in assay [6] it was above 100 µM. Further, the TGI in assay [7] was 6.68 µM; in assay [8] it was above 100 µM; in [9], above 95.7 µM; in [10] it was above 100 µM.
As for `COc1ccc(-c2cc(-c3ccccc3)nc(SCCCC(=O)NO)n2)cc1`, the GI50 is 1.68 µM in assay [1]; 1.47 µM in [2]; 1.6 µM in assay [3]; 1.71 µM in assay [4]; 0.826 µM in assay [5]; 1.74 µM in assay [6]. The GI50 in assay [7] is 1.2 µM; in assay [8] it was 0.979 µM; in assay [9] it was 1.57 µM; in assay [10] it was 1.66 µM. In addition, the TGI in assay [1] stood at 6.08 µM; in assay [2] it was 4.32 µM; in [3], 8.34 µM; in assay [4], 5.42 µM; in assay [5], 2.54 µM; in assay [6], 8.45 µM. Also, the TGI in assay [7] amounted to 5.17 µM; in [8], 6.09 µM; in assay [9] it was 6.1 µM; in assay [10], 8.07 µM.
On to `CCCCNCC(=O)O[C@]1(CC)C(=O)OCc2c1cc1n(c2=O)Cc2cc3ccccc3nc2-1`, for which the TGI came to 2.06 µM in [1]; 0.849 µM in assay [2]; 8.19 µM in assay [3]; 12.3 µM in assay [4]; 11.7 µM in assay [5]; 26.7 µM in [6]. For the same molecule, the TGI in [7] is 12.8 µM; in [8] it was 5.95 µM; in assay [9], above 100 µM; in [10], above 100 µM.
